From patent publication US8097585B2, “Methods of treating inflammation by administration of heme oxygenase-1 and products of heme degradation” (priority 2002, dated 2012)
Where a name gives a salt, the structure may show the parent alone.

Experiments:
Format in all cases: in vivo, mice
[1] = test system: DBA/2 islets in diabetic B6AF1 recipients; experiment: Allogeneic islet transplantation, graft survival and tolerance test
Description: Animals. Male DBA/2, B6AF1 and DBA/1 mice 6-8 week of age (Jackson) are used in the experiments. Mice were kept for 2 weeks at 4 mice/cage and fed normal laboratory chow before using for the experiment.
Treatment protocol. Recipients were rendered diabetic using streptozotocin (STZ, 225 mg/kg). Five days after STZ administration, animals with two consecutive blood glucose levels exceeding 350 mg/dl are used as recipients. Islets (500) are transplanted under the kidney capsule of the recipients.
Reagents. Cobalt protoporphyrin (CoPPIX, Porphyrin Products, Logan, Utah), biliverdin dihydrochloride and bilirubin (ICN Biomedicals Inc., OH) were dissolved in a small amount of 0.2 M NaOH, subsequently adjusted to a pH of 7.4 with 1 M HCl, and diluted in 1×PBS. The stock solutions (CoPPIX=2 mg/ml, biliverdin=3.2 mg/ml, bilirubin=0.5 mg/ml) were aliquoted and kept at −70° C. until used. Light exposure was limited as much as possible.
Induction of HO-1/Administration of biliverdin/bilirubin. When given to the donor, CoPPIX (20 mg/kg) was given 24 hours before islet isolation to induce HO-1 expression. To verify HO-1 expression in different organs after CoPP treatment, tissue samples are collected 24 hours after treatment and snap frozen in liquid nitrogen. Immunohistological analysis of HO-1 expression is performed using an anti-HO-1 antibody. CoPPIX (20 mg/kg) was administrated to the recipient intraperitoneally (i.p.) on day-1, 1, 3, 5 and 7. Biliverdin (50 μmol/kg) or bilirubin (8.5 μmol/kg) was given intraperitoneally to the donor one hour before islet isolation. For the recipient, biliverdin (50 μmol/kg) or bilirubin ([…]) was administered intraperitoneally either daily or twice per day from day-1 until day 13. No further treatment was given afterwards.
Measurement of Glucose level. Glucose levels were tested twice weekly after transplantation. Glucose levels of <200 mg/dl were considered normoglycemic. Grafts were considered rejected when two consecutive glucose levels were >300 mg/dl.
Tolerance test. The first graft was removed from a number of animals that had islets surviving long-term (longer than 100 days) by doing a nephrectomy. Islets syngeneic with the original donor were transplanted under the contralateral kidney capsule without further treatment. If those second transplanted islets also survived longer than 100 days without further treatment, the recipients were considered tolerant.

recipient splenocytes = experiment: Mixed lymphocyte culture with splenocytes of treated cardiac allograft recipients
Description: Mixed lymphocyte culture (MLC). Irradiated (25Gy, ^137Cs) DBA/2 splenocytes (5×10^5/well) were co-cultured with responders (5×10^5/well) in a 96 well round bottom plates for 3 days at 37° C., 95% air with 5% CO2. When using cells from cardiac recipients as responders, the co-culture period was 3 days without any further in vitro treatment. ^3H-thymidine (1 μCi/well) was added 16 hours before termination of cell culture, and ^3H-thymidine incorporation was measured.
Induction of HO-1 expression or biliverdin administration suppresses the T cell mediated alloimmune response in vivo. […] Recipient splenocytes harvested 5 days after cardiac transplantation were used as responder cells in an in vitro culture with DBA/2 splenocytes as feeder cells. Proliferation was measured at 72 hours (FIG. 9).

[2] = test system: DBA/2 cardiac allografts in B6AF1 recipients; experiment: Heterotopic cardiac allograft transplantation, graft survival
Description: Animals. Male DBA/2 (H-2^d), B6AF1 (H-2^k/d,b) and FVB (H-2^q) mice were purchased from Jackson Lab. Inc. (Bar Harbor, Me.). They were maintained in the institutional specific-pathogen free facility, which has an appropriate light cycle with free access to water and chow ad libitum, and used for experiments at age of 6-10 weeks.
Cardiac transplantation. DBA2/J and B6AF1 mice were used as donor and recipient, respectively. Heterotopic heart transplantation was carried out according to the procedure of Corry and Russell (Corry et al., Transplant Proc. 5(1):733-5, 1973). […] Secondary heart grafting into the neck was performed using a cuff technique as described previously (Matsuura et al., Transplantation 51(4):896-8, 1991). Briefly, the heart graft was harvested from either DBA2/J (donor strain) or FVB (third-party strain) mice. The right jugular vein and the right common carotid artery of recipient were dissected, and a cuff (polyethylene or polyimide) was connected to these vessels. The graft aorta and pulmonary artery were sleeved over the cuff on the recipient's common carotid artery and the jugular vein, respectively, and fixed with a ligature. After transplantation, beating of the graft was monitored by daily palpation, and scored +1 to +4 according to the strength of graft contractions. Graft rejection was defined as cessation of beating, and was confirmed by direct inspection followed by histological examination.
Donor and recipient mice were treated either with CoPPIX (5 mg/kg/day), ZnPPIX (5 mg/kg/day) or biliverdin (administered once, twice or three times per day at a dose of 50 μmol/kg/dose). All reagents were administered by intraperitoneal (i.p.) injection. Donor animals were treated for 2 days, starting from 2 days before graft harvest (day-2 and day-1). Treatment of recipient mice was initiated one day before transplantation, and continued until 13 days post-transplant (day-1 to day 13). For the experiments using donor splenocyte infusion (DSI) on day-7 (DSI (D-7)), treatments of recipient animals (either with CoPPIX or ZnPPIX) started from day-8 and were terminated on day 6. Recipients received no further treatment. Spleen cells (2×10^7) isolated from DBA/2J mice as described herein were used for DSI treatment. The cells were injected via the penile vein with 200 μl of 0.9% saline solution.
Statistics. Cardiac graft survival was plotted by the Kaplan-Meier method, and a log-rank test was applied to compare statistical significance. Expression levels of HO-1/α-actin protein are expressed as mean±standard deviation. Other data are expressed as mean±standard error of the mean (mean±SEM). Intergroup statistical analysis was performed by one-way ANOVA, and Fisher's PSLD was used for a post-hoc test. A comparison was considered statistically significant when the p-value was <0.05.

[3] = long-term acceptors after biliverdin, second set transplantation, n=3

Structure (SMILES)	islet allograft survival ([1]; CoPP 20 mg/kg, donor one day before, recipient days −1, 1, 3, 5 and 7)	islet allograft survival ([1]; CoPP, HO-1 induced only in the donor)	acceptance of 2nd graft (DBA/2 islets) in tolerance test ([1]; all five animals, no further treatment) [days]	third party grafts in tolerance test ([1]; n=3)	proliferation of recipient splenocytes (recipient splenocytes; harvested 5 days after cardiac transplantation, 72 hours culture with DBA/2 splenocytes, compared to controls)	grafts surviving long-term, >100 days ([2]; 5 mg/kg/day i.p., donor from day-2, recipient day-1 to day 13, 2 of 6) [%]	MST of the other 4 rejected grafts ([2]; CoPPIX 5 mg/kg/day i.p.) [days]	allografts surviving over 100 days ([2]; CoPPIX (donor 2 days, recipient day-8 to day 6) plus DSI (D-7), 7/7) [%]	grafts surviving long-term for more than 100 days ([2]; CoPPIX together with DSI (D0), 7 of 8) [%]	antigen specific tolerance ([1]; long-term survival animals)	long-term surviving islets ([1]; treatment of the recipient only)	proliferation of recipient splenocytes (recipient splenocytes; biliverdin 50 μmol/kg, one dose per day)	proliferation of recipient splenocytes (recipient splenocytes; biliverdin 50 μmol/kg, three doses per day)	grafts surviving for more than 100 days ([2]; biliverdin two (every 12 hours) or three (every 8 hours) times per day, 50 μmol/kg per dose, 4 of 6) [%]	acceptance of secondary heart graft from the donor strain [2, 3]	rejection of third party (FVB) graft [2, 3] [days]	graft median survival time (MST) ([2]; one dose per day i.p. (ZnPPIX 5 mg/kg; biliverdin 50 μmol/kg), untreated 11.5 days) [days]
C=CC1=C(C)c2cc3[n-]c(cc4nc(cc5[n-]c(cc1n2)c(C)c5CCC(=O)[O-])C(CCC(=O)[O-])=C4C)c(C)c3C=C.[Co+2].[H+].[H+] [CoPP, Cobalt protoporphyrin]	prolongation of survival in general but also to some islets surviving long-term	prolonged survival and function of the islets in the recipient but also to an occasional long-term surviving graft	> 100	rejected rapidly	inhibited splenocyte proliferation in a significant manner	33.3	18	100	87.5								
C=CC1=C(C)/C(=C/C2=NC(=C\c3[nH]c(/C=C4\NC(=O)C(C)=C4C=C)c(C)c3CCC(=O)O)/C(CCC(=O)O)=C2C)NC1=O [biliverdin, biliverdin dihydrochloride]										seen in some	significant percentage of long-term surviving islets	significantly suppressed	significantly suppressed	66.7	more than 60 days	≤ 11	20.5
